The record followed here is ChEMBL document CHEMBL4665653, “VU6005806/AZN-00016130, an advanced M positive allosteric modulator (PAM) profiled as a potential preclinical development candidate” (Bioorg Med Chem Lett, 2019).

Data set [1] in a line: Fraction unbound in human plasma. In kind it is ADME, cell-free.
Data set [2] is described as follows: Hepatic clearance in rat. In kind it is ADME. Particulars: in vivo.
Data set [3] deals with Muscarinic acetylcholine receptor M3 (Homo sapiens, UniProt P20309). Kind of data set: Positive allosteric modulation of human M3 receptor.
Muscarinic acetylcholine receptor M3, sequence (P20309 whole entry, looked up): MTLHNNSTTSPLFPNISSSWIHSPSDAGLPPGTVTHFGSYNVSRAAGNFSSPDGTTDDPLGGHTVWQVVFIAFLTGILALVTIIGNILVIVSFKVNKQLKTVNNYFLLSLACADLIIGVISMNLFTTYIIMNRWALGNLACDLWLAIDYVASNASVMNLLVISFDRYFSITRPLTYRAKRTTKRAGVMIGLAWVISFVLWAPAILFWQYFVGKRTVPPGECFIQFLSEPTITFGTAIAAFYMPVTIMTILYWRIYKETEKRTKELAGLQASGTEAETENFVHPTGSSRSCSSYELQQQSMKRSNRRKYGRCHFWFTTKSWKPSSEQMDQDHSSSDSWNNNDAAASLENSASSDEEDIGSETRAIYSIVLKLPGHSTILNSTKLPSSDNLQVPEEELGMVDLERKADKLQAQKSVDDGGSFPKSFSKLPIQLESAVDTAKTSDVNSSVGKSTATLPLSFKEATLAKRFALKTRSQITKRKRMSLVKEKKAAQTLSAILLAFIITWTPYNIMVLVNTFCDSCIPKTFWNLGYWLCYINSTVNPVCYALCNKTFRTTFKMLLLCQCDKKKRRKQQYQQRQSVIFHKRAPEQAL
Data set [4] has as its target T1, Muscarinic acetylcholine receptor M2 (Homo sapiens, UniProt P08172).
T1 sequence (P08172 whole entry): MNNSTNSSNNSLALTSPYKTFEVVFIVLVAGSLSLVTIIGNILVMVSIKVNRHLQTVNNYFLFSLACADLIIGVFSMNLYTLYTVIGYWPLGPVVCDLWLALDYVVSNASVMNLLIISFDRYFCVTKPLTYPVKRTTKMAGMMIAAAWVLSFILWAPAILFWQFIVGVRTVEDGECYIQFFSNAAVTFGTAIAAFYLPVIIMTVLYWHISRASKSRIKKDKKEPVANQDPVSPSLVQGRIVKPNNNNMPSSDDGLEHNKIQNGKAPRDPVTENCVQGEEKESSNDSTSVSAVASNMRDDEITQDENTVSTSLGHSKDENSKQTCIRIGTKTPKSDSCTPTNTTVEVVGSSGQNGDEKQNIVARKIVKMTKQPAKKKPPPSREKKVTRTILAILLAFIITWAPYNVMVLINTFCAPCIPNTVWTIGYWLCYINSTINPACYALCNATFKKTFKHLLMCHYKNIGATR
Kind of data set: Positive allosteric modulation of human M2 receptor/Gqi5 in presence of EC20 acetylcholine by calcium mobilization assay.

The target of data set [5] is T2, Muscarinic acetylcholine receptor M4 (Homo sapiens, UniProt P08173).
T2 sequence (P08173 whole entry): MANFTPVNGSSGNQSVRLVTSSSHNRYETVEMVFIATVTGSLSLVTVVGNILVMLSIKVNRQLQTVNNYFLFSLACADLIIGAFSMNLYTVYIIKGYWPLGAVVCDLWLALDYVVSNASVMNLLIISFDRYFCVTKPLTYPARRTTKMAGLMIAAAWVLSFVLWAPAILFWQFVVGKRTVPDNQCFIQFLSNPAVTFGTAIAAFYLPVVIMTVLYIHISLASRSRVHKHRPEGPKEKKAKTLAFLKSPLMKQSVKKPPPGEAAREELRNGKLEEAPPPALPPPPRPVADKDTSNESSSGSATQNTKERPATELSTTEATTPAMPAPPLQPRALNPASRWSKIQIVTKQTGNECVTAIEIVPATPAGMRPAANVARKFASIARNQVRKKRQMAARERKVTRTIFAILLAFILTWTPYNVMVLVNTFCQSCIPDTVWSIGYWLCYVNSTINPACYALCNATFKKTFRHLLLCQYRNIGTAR
Kind of data set: Positive allosteric modulation of human M4 receptor/Gqi5 in presence of EC20 acetylcholine by calcium mobilization assay. In kind it is functional.

The nature of data set [6]: Fraction unbound in rat plasma. In kind it is ADME, cell-free.
Data set [7] concerns the target T3, Muscarinic acetylcholine receptor M4 (Homo sapiens) (UniProt P08173).
T3 sequence (whole entry): T2 sequence (P08173 whole entry)
Kind of data set: Positive allosteric modulation of human M4 receptor/Gqi5 in presence of EC20 acetylcholine by calcium mobilization assay relative to acetylcholine. In kind it is functional. Particulars: filed as positive allosteric modulator.

Data set [8] is described as follows: Brain to plasma permeability coefficient, Kp in Sprague-Dawley rat at 0.1 to 0.2 mg/kg, iv measured after 0.25 hrs. In kind it is ADME, organism-based. The conditions noted are these: dose 0.1-0.2 mg/kg.
The nature of data set [9]: Fraction unbound in rat brain. In kind it is ADME, tissue-based.
A short description of data set [10]: Unbound brain-to-plasma concentration ratio in Sprague-Dawley rat at 0.1 to 0.2 mg/kg, iv measured after 0.25 hrs. The conditions noted are these: dose 0.1-0.2 mg/kg, read-out: K(p,uu,brain). In kind it is ADME, organism-based.
The nature of data set [11]: Hepatic clearance in human. In kind it is ADME.
Data set [12] addresses T4, Muscarinic acetylcholine receptor M1 (Homo sapiens) (UniProt P11229).
T4 sequence (whole entry): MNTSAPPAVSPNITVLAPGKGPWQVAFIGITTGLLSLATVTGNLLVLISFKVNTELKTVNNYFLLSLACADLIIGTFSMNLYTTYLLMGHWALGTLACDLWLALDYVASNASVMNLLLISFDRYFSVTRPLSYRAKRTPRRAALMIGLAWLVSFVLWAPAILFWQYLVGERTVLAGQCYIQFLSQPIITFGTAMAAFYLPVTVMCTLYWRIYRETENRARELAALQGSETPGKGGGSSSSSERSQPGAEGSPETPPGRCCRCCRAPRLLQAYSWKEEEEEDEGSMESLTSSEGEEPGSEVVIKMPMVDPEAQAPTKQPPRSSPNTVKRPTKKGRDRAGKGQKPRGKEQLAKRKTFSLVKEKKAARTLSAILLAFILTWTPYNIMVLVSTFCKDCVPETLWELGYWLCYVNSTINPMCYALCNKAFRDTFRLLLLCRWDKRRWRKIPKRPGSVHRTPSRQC
Kind of data set: Positive allosteric modulation of human M1 receptor.

Data set [13] addresses T5, Muscarinic acetylcholine receptor M5 (Homo sapiens) (UniProt P08912).
T5 sequence (whole entry): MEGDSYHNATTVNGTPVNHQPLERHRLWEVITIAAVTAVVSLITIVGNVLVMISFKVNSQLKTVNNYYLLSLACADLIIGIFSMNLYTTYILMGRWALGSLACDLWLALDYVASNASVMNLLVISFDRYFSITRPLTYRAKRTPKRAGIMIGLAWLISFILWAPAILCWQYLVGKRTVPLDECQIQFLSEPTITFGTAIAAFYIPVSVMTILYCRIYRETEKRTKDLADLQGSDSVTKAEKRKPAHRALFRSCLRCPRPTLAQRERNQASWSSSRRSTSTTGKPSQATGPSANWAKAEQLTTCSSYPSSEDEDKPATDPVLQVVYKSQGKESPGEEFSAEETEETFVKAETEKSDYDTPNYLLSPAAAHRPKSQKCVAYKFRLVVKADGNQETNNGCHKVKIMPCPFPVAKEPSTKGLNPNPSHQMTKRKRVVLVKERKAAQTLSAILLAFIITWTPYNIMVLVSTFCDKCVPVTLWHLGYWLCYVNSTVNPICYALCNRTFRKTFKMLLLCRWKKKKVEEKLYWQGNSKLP
Kind of data set: Positive allosteric modulation of human M5 receptor.

Data set [14] concerns P-gp. Kind of data set: Substrate activity at human P-gp expressed in MDCK-MDR1 cells assessed as efflux ratio. In kind it is ADME, cell-based.
The target of data set [15] is T1, Muscarinic acetylcholine receptor M2. Kind of data set: Positive allosteric modulation of human M2 receptor/Gqi5 in presence of EC20 acetylcholine by calcium mobilization assay relative to acetylcholine. Particulars: read-out: %max.

Structures are written as SMILES. Calls of active or inactive are those of the source. The rule behind the calls is not given here.

With `Cc1c(CF)nnc2sc(C(=O)NC3CN(c4ncc(C(F)(F)F)cn4)C3)c(N)c12`, the fraction unbound worked out at 0.042 in data set [1], 0.034 in [6] and 0.085 in data set [9]. Also, the CLH was 23.7 mL/min/kg in data set [2] and 10.8 mL/min/kg in [11]. Besides, the result in [3], in [12] and in [13] was inactive. Also, the values for the EC50 in data set [4] and in data set [5] were greater than 30 µM and 170 nM, respectively. Also, in data set [7], the %max is 73%. In addition, the Kp at 0.25 h in data set [8] was 0.06. The Kp uu at 0.25 h in data set [10] came to 0.15.

For the molecule `Cc1nnc2sc(C(=O)NC3CN(c4ncc(C(F)(F)F)cn4)C3)c(N)c2c1C`, the fraction unbound in [1] stood at 0.048; in data set [6] it was 0.028; in [9] it was 0.41. For the same molecule, the CLH in data set [2] came out at 10.6 mL/min/kg; in data set [11], 4.39 mL/min/kg. In addition, the efflux ratio in [14] amounted to 4. In addition, the result in data set [3], in data set [12] and in data set [13] was inactive. The EC50 is 1.16 µM in [4] and 90 nM in [5]. Moreover, the Emax in data set [15] turned out to be 30%. For the same molecule, in data set [7], the %max is 76%. In addition, the Kp at 0.25 h in data set [8] worked out at 0.12. In addition, the Kp uu at 0.25 h in data set [10] amounted to 0.18.

Turning to `Cc1c(C(F)F)nnc2sc(C(=O)NC3CN(c4ncc(C(F)(F)F)cn4)C3)c(N)c12`, the unbound share (fraction unbound) is 0.02 in data set [1], 0.017 in data set [6] and 0.062 in data set [9]. In addition, the figures for the CLH in data set [2] and in [11] were 18.8 mL/min/kg and 10.1 mL/min/kg, respectively. For the same molecule, the efflux ratio in [14] amounted to 3. In addition, the outcome in [3], in [12] and in data set [13] was inactive. The EC50 is greater than 30 µM in data set [4] and 150 nM in [5]. In addition, the %max in data set [7] came out at 49%. The Kp at 0.25 h in [8] amounted to 0.29. In addition, in data set [10], the Kp uu at 0.25 h is 0.88.

For the molecule `Cc1c(Cl)nnc2sc(C(=O)NC3CN(c4cc(C(F)(F)F)ncc4Cl)C3)c(N)c12`, the fraction unbound in data set [1] was determined as 0.019; in data set [6], 0.019; in data set [9], 0.01. Moreover, the CLH in data set [2] amounted to 31.7 mL/min/kg; in data set [11], 14.7 mL/min/kg. Besides, the outcome in [3], in [12] and in data set [13] was inactive. In addition, the concentration for a half-maximal effect (EC50) in data set [4] is greater than 10 µM; in data set [5] it was 20 nM. In data set [15], the Emax stood at 51%. Further, the %max in data set [7] is 90%. Besides, the Kp at 0.25 h in data set [8] was determined as 0.31. Also, the Kp uu at 0.25 h in [10] stood at 0.16.

As for `COc1cc(N2CC(NC(=O)c3sc4nnc(Cl)c(C)c4c3N)C2)c(Cl)cn1`, the unbound share (fraction unbound) in data set [1] is less than 0.001; in [6] it was 0.005; in data set [9] it was 0.01. In addition, the CLH in [2] was 15.3 mL/min/kg; in data set [11], 11.7 mL/min/kg. The outcome in data set [3], in data set [12] and in data set [13] was inactive. In addition, the EC50 was greater than 30 µM in data set [4] and 10 nM in [5]. The %max in data set [7] is 52%. For the same molecule, in [8], the Kp at 0.25 h is 0.21. Further, the Kp uu at 0.25 h in [10] stood at 0.42.
